Consider six compounds from patent US10759785B2, “Compounds” (ENTERPRISE THERAPEUTICS LIMITED, priority 2016, dated 2020).

Each structure is given as a SMILES string. Structures can show the parent of a compound that is named as a salt.

Common to all, as to assay type: in vitro ADME
The nature of data set [1]: Microsomal stability (rat microsomes). As to conditions: pH 7.4, 1 μM test compound, 0.5 mg/mL protein, 1 mM NADPH, 37° C., read-out: Averages. Mic Half Life Rat. How it is done:
(§1) Example 28—Microsomal Stability
(§2) Microsomes (rat and human) were obtained from Bioreclamation. Test compound stock solutions in DMSO (10 mM) were diluted with DMSO to 2 mM. Further dilution was completed to achieve a 100 μM stock (final concentrations; 91.5% Acetonitrile: 8.5% DMSO). Final test compound concentration in incubation was 1 μM (<0.1% DMSO). The following probe substrates were used: verapamil, propranolol, metoprolol and phenacetin (rat) at a final incubation concentration of 1 μM. Assay buffer—Solution 1: 17.4 g potassium phosphate dibasic anhydrous (K2HPO4, 0.1 M) dissolved in 1 L deionised water. Solution 2: 13.6 g potassium phosphate monobasic anhydrous (KH2PO4, 0.1 M) dissolved in 1 L deionised water. Potassium phosphate solutions 1 and 2 were combined to form a pH 7.42 solution at 37° C. pH 7.4 with 2 mM magnesium chloride. NADPH (10 mM)—diluted in deionised water. Frozen microsomes were thawed at 37° C. Microsomes were diluted in assay buffer to achieve a final protein concentration of 0.5 mg/mL and 1 mM NADPH. The following procedure was completed on a Perkin Elmer Janus robotic platform in 96 well format: The microsomal incubation plate was transferred to a heater shaker at 300 rpm and solution heated to 37° C. for 10 min pre-warm. A no co-factor control at 0 and 45 min and one replicates of each test compound was included in every assay. Microsomes were incubated at 37° C., on a shaker set at 300 rpm throughout the assay. At each timepoint (0, 5, 15, 30, 45 min) 50 μL of sample was removed from the 96-well and added to 200 μL of quench solution (acetonitrile containing 0.1% formic acid and imipramine/labetalol, 200 nM). Samples were diluted 1:1 with water using the Janus Robot and analysed by LC-MS/MS.

Data set [2] is described as follows: Microsomal stability (human microsomes). Particulars: pH 7.4, 1 μM test compound, 0.5 mg/mL protein, 1 mM NADPH, 37° C., read-out: Averages. Mic Half Life Human. The procedure:
as §1, §2

Data set [3] is described as follows: Hepatic stability (rat cryopreserved hepatocytes). As to conditions: pH 7.4, 1 μM test compound, 1×10^6 cells/mL, 37° C., read-out: Averages. Hep Half Life Rat. The procedure: (§3) Example 29—Hepatic Stability
(§4) Cryopreserved hepatocytes (rat and human) were obtained from Bioreclamation. Test compound stock solutions in DMSO (10 mM) were diluted with DMSO to 4 mM. Further dilution was completed to achieve a 100 μM stock (5 μL of 4 mM in 195 μL of 50:50 DMSO:hepatocyte buffer). Final test compound concentration in incubation was 1 μM. The following probe substrates were used: testosterone and carbamazepine at a final incubation concentration of 1 μM. Hepatocyte buffer was prepared (Williams E media containing phenol red and Glutamax™, 15 mM HEPES, warmed to 37° C., pH7.4 with NaOH). Cells were removed from liquid nitrogen, thawed in a waterbath, decanted into 50 mL of pre-warmed Cryopreserved Hepatocyte Recovery Media (LifeTechnologies) and centrifuged. Supernatant fraction was removed, cells were re-suspended in hepatocyte buffer and counted by trypan blue exclusion. Cell viability of >80% was required for all assays. Cells were re-suspended to 1×10^6/mL and 198 μL cell suspension added to each 96-well. 2 μL of 100 μM compound stock solution was added to relevant wells to initiate the incubation. A no cell control and two replicates of each test compound was included in every assay. Cells were incubated at 37° C., on a shaker set at 300 rpm. At each timepoint (0, 15, 30, 45, 60, 90 min) 20 μL of sample was removed from the 96-well and added to 80 μL of quench solution (acetonitrile containing 0.1% formic acid and imipramine/labetalol, 200 nM). Samples were diluted 1:1 with water using the Janus Robot and analysed by LC-MS/MS.

Data set [4] is described as follows: Hepatic stability (human cryopreserved hepatocytes). As to conditions: cryopreserved hepatocytes, pH 7.4, 1 μM test compound, 1×10^6 cells/mL, 37° C., read-out: Averages. Hep Half Life Human. How it is done:
as §3, §4

`CCn1c(CNC(=O)c2nc(Br)cnc2N)[n+](CC)c2ccc(-c3cnn(C4CCNCC4)c3)cc21.Cl.[I-]` [Example 21, 2-{[(3-amino-6-bromopyrazin-2-yl)formamido]methyl}-1,3-diethyl-6-[1-(piperidin-4-yl)-1H-pyrazol-4-yl]-1H-1,3-benzodiazol-3-ium hydrochloride iodide]: the half-life (as a rule, how long it takes for the measured level to halve) at 1 μM in data set [1] is 1.28 h; in data set [2], 1.53 h; in data set [3], 0.417 h; in data set [4], 1.1 h.

As to `CCn1c(CNC(=O)c2nc(Br)cnc2N)[n+](CC)c2ccc(-c3cnn(C4CCN(C(=N)N)CC4)c3)cc21.O=CO.O=C[O-]` [Example 22, 2-{[(3-amino-6-bromopyrazin-2-yl)formamido]methyl}-6-[1-(1-carbamimidoylpiperidin-4-yl)-1H-pyrazol-4-yl]-1,3-diethyl-1H-1,3-benzodiazol-3-ium formic acid formate], the half-life at 1 μM was over 2.3 h in data set [1], over 2.3 h in data set [2], 1.5 h in data set [3] and 1.12 h in data set [4].

Consider `CCn1c(CNC(=O)c2nc(Br)cnc2N)[n+](CC)c2ccc(-c3cnn(C4CCN(C[C@H](O)[C@@H](O)[C@H](O)[C@H](O)CO)CC4)c3)cc21.O=CO.[Cl-]` [Example 23, 2-{[(3-amino-6-bromopyrazin-2-yl)formamido]methyl}-1,3-diethyl-6-(1-{1-[(2S,3R,4R,5R)-2,3,4,5,6-pentahydroxyhexyl]piperidin-4-yl}-1H-pyrazol-4-yl)-1H-1,3-benzodiazol-3-ium formic acid chloride], for which the half-life at 1 μM in data set [1] is over 2.3 h; in data set [2], over 2.3 h; in data set [3], 2.07 h; in data set [4], 1.2 h.

On to `CCn1c(CNC(=O)c2nc(Br)cnc2N)[n+](CC)c2ccc(OCCNC(=O)OC(C)(C)C)cc21.O=C[O-]` [Example 24, 2-{[(3-amino-6-bromopyrazin-2-yl)formamido]methyl}-6-(2-{[(tert-butoxy)carbonyl]amino}ethoxy)-1,3-diethyl-1H-1,3-benzodiazol-3-ium formate], for which the half-life at 1 μM in data set [1] amounted to 0.617 h; in data set [2], 0.983 h; in data set [3] it was 0.7 h; in data set [4] it was 1.22 h.

As for `CCn1c(CNC(=O)c2nc(Br)cnc2N)[n+](CC)c2ccc(OCCN)cc21.Cl.[Cl-]` [Example 25, 2-{[(3-Amino-6-bromopyrazin-2-yl)formamido]methyl}-6-(2-aminoethoxy)-1,3-diethyl-1H-1,3-benzodiazol-3-ium hydrochloride chloride], the half-life at 1 μM in data set [1] was over 2.3 h; in data set [2] it was over 2.3 h; in data set [3] it was 0.983 h; in data set [4] it was over 4 h.

For `CCn1c(CNC(=O)c2nc(C#N)cnc2N)[n+](CC)c2ccc(OC)cc21` [Example 26, 2-{[(3-amino-6-cyanopyrazin-2-yl)formamido]methyl}-1,3-diethyl-6-methoxy-1H-1,3-benzodiazol-3-ium formate], the half-life at 1 μM in data set [1] was under 0.05 h; in data set [2], over 2.3 h; in data set [3] it was 0.383 h; in data set [4] it was 3.87 h.
